The source made the active and inactive calls. The rule behind the calls is not given here.
Tests used:
[1] = target: T1, Protein cereblon/Cyclin-dependent kinase 4 (Homo sapiens, UniProt P11802+Q96SW2); assay: PROTAC activity at CRBN/CDK4 in human NCI-H3122 cells assessed as induction of CDK4 degradation at 5 uM pretreated with pomalidomide for 4 hrs followed compound addition and measured after 24 hrs by Western blot analysis; format: cell-based
[2] = target: T1, Protein cereblon/Cyclin-dependent kinase 4; assay: PROTAC activity at CRBN/CDK4 in human NCI-H3122 cells assessed as increase in CDK4 protein level at 5 uM measured after 24 hrs by Western blot analysis; format: cell-based
[3] = target: T2, Protein cereblon/ALK tyrosine kinase receptor/Echinoderm microtubule-associated protein-like 4 (Homo sapiens) (UniProt Q9UM73+Q9HC35+Q96SW2); assay: PROTAC activity at CRBN/EML4-ALK in human NCI-H3122 cells assessed as degradation of EML4-ALK fusion protein at 5 uM pretreated with MG132 for 4 hrs followed compound addition and measured after 24 hrs by Western blot analysis; format: cell-based
NCI-H3122 [4] = assay: Cell cycle arrest in human NCI-H3122 cells assessed as G2/M phase cells at 2.5 uM incubated for 24 hrs by propidium iodide staining based flow cytometric analysis (reference value: 20.89%); format: functional
[5] = target: T2, Protein cereblon/ALK tyrosine kinase receptor/Echinoderm microtubule-associated protein-like 4 (Homo sapiens); assay: PROTAC activity at CRBN/EML4-ALK in human NCI-H3122 cells assessed as reduction in EML4-ALK fusion protein level at 0.1 to 20 uM incubated for 24 hrs in presence of GSH by Western blot analysis; format: cell-based; details: dose 0.1-20 µM
[6] = target: T2, Protein cereblon/ALK tyrosine kinase receptor/Echinoderm microtubule-associated protein-like 4 (Homo sapiens); assay: PROTAC activity at CRBN/EML4-ALK in human NCI-H2228 cells assessed as reduction in EML4-ALK fusion protein level incubated for 24 hrs by Western blot analysis; format: cell-based
NCI-H3122 [7] = assay: Induction of apoptosis in human NCI-H3122 cells assessed as viable cells at 0.312 uM incubated for 48 hrs by Annexin V-FITC/propidium iodide staining based flow cytometric analysis (reference value: 95.66%); format: functional; details: read-out: Activity
[8] = Toxicity in BALB/c nude mouse xenografted with human NCI-H3122 cells assessed as effect on lung function at 75 mg/kg, IG administered once daily for 18 days by H and E staining based assay; format: organism-based; details: in vivo, po, 432 h, time 18 day
NCI-H3122 [9] = assay: Antiproliferative activity against human NCI-H3122 cells assessed as inhibition of cell growth incubated for 5 days by MTT assay; format: functional, cell-based; details: NCI-H3122, 120 h
Mus musculus = assay: In vivo PROTAC activity at CDK4 in BALB/c nude mouse xenografted with human NCI-H3122 cells assessed as reduction in CDK4 protein expression level in tumor at 75 mg/kg, IG administered once daily for 18 days and measured after 12 hrs of last dose by immunohistochemical analysis; format: functional, organism-based; details: time 444.0 hrs
NCI-H3122 [10] = assay: Cell cycle arrest in human NCI-H3122 cells assessed as G2/M phase cells at 0.312 uM incubated for 24 hrs by propidium iodide staining based flow cytometric analysis (reference value: 20.89%); format: functional
NCI-H3122 [11] = assay: Inhibition of colony formation in human NCI-H3122 cells assessed as reduction in number of colonies measured after 10 days by crystal violet staining based microscopic analysis; format: functional, cell-based; details: dose 0.039-0.312 µM, time 10.0 day
NCI-H3122 [12] = assay: Antitumor activity against human NCI-H3122 cells xenografted in BALB/c nude mouse assessed as reduction in tumor volume at 75 mg/kg, IG administered once daily for 18 days and measured after 12 hrs of last dose; format: functional, organism-based; details: time 444.0 hrs
NCI-H3122 [13] = assay: Cell cycle arrest in human NCI-H3122 cells assessed as G2/M phase cells at 0.625 uM incubated for 24 hrs by propidium iodide staining based flow cytometric analysis (reference value: 20.89%); format: functional
NCI-H3122 [14] = assay: Induction of apoptosis in human NCI-H3122 cells assessed as necrotic cells at 0.312 uM incubated for 48 hrs by Annexin V-FITC/propidium iodide staining based flow cytometric analysis (reference value: 0.57%); format: functional
NCI-H3122 [15] = assay: Induction of apoptosis in human NCI-H3122 cells assessed as necrotic cells at 2.5 uM incubated for 48 hrs by Annexin V-FITC/propidium iodide staining based flow cytometric analysis (reference value: 0.57%); format: functional
[16] = target: Protein cereblon/ALK tyrosine kinase receptor (Homo sapiens) (UniProt Q9UM73+Q96SW2); assay: PROTAC activity at CRBN/ALK in human NCI-H3122 cells assessed as degradation of ALK protein at 5 uM pretreated with ceritinib for 4 hrs followed by compound addition and measured after 24 hrs by Western blot analysis; format: cell-based
[17] = Toxicity in BALB/c nude mouse xenografted with human NCI-H3122 cells assessed as effect on visceral lung morphology at 75 mg/kg, IG administered once daily for 18 days and measured after 12 hrs of last dose by H and E staining based analysis; format: organism-based; details: in vivo, po, 444 h
[18] = target: T2, Protein cereblon/ALK tyrosine kinase receptor/Echinoderm microtubule-associated protein-like 4 (Homo sapiens); assay: PROTAC activity at CRBN/EML4-ALK in human NCI-H3122 cells assessed as induction of EML4-ALK fusion protein degradation at 5 uM measured at 16 to 48 hrs by Western blot analysis; format: cell-based; details: time 16-48 hrs
[19] = target: ALK tyrosine kinase receptor (Homo sapiens) (UniProt Q9UM73); assay: Inhibition of ALK (unknown origin) at 1 uM by LANCE Ultra TR-FRET assay relative to control
[20] = Toxicity in BALB/c nude mouse xenografted with human NCI-H3122 cells assessed as effect on spleen function at 75 mg/kg, IG administered once daily for 18 days by H and E staining based assay; format: organism-based; details: in vivo, po, 432 h, time 18 day
NCI-H3122 [21] = assay: Antitumor activity against human NCI-H3122 cells xenografted in BALB/c nude mouse assessed as tumor growth inhibition at 50 mg/kg, IG administered once daily for 18 days and measured after 12 hrs of last dose relative to control; format: functional; details: NCI-H3122, po, time 444 hrs, read-out: TGI
NCI-H3122 [22] = assay: Cell cycle arrest in human NCI-H3122 cells assessed as accumulation of cells at G0/G1 phase at 0.312 uM incubated for 24 hrs by propidium iodide staining based flow cytometric analysis (reference value: 48.68%); format: functional
NCI-H1299 = assay: Antiproliferative activity against human NCI-H1299 cells assessed as inhibition of cell growth pretreated with GSH followed by compound addition and incubated for 3 to 5 days by MTT assay; format: functional, cell-based
NCI-H3122 [23] = assay: Induction of apoptosis in human NCI-H3122 cells assessed as viable cells at 1.25 uM incubated for 48 hrs by Annexin V-FITC/propidium iodide staining based flow cytometric analysis (reference value: 95.66%); format: functional; details: read-out: Activity
[24] = Cytotoxicity against human L02 cells assessed as inhibition of cell growth incubated for 3 to 5 days by MTT assay; format: toxicity, cell-based
NCI-H3122 [25] = assay: Induction of apoptosis in human NCI-H3122 cells assessed as viable cells at 0.625 uM incubated for 48 hrs by Annexin V-FITC/propidium iodide staining based flow cytometric analysis (reference value: 95.66%); format: functional; details: read-out: Activity
[26] = target: Protein cereblon/Cyclin-dependent kinase 6 (Homo sapiens) (UniProt Q00534+Q96SW2); assay: PROTAC activity at CRBN/CDK6 in human NCI-H2228 cells assessed as reduction in CDK6 protein level by Western blot analysis; format: cell-based
NCI-H2228 = assay: Antiproliferative activity against human NCI-H2228 cells assessed as inhibition of cell growth incubated for 3 to 5 days by MTT assay; format: functional, cell-based

T2 sequence (Q96SW2 whole entry partner, the tested form may be a part): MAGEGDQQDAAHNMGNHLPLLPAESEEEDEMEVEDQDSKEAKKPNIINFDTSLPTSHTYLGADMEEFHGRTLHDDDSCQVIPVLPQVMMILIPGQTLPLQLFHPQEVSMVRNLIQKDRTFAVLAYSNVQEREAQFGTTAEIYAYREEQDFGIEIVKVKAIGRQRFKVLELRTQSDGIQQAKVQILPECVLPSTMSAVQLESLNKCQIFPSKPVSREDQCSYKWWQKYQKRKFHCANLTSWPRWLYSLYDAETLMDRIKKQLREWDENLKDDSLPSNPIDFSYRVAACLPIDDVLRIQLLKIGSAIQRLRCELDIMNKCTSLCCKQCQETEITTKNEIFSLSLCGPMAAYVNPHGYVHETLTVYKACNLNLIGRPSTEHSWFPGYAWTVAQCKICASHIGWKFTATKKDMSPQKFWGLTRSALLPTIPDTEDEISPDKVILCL
T2 sequence (Q9HC35 whole entry partner, the tested form may be a part): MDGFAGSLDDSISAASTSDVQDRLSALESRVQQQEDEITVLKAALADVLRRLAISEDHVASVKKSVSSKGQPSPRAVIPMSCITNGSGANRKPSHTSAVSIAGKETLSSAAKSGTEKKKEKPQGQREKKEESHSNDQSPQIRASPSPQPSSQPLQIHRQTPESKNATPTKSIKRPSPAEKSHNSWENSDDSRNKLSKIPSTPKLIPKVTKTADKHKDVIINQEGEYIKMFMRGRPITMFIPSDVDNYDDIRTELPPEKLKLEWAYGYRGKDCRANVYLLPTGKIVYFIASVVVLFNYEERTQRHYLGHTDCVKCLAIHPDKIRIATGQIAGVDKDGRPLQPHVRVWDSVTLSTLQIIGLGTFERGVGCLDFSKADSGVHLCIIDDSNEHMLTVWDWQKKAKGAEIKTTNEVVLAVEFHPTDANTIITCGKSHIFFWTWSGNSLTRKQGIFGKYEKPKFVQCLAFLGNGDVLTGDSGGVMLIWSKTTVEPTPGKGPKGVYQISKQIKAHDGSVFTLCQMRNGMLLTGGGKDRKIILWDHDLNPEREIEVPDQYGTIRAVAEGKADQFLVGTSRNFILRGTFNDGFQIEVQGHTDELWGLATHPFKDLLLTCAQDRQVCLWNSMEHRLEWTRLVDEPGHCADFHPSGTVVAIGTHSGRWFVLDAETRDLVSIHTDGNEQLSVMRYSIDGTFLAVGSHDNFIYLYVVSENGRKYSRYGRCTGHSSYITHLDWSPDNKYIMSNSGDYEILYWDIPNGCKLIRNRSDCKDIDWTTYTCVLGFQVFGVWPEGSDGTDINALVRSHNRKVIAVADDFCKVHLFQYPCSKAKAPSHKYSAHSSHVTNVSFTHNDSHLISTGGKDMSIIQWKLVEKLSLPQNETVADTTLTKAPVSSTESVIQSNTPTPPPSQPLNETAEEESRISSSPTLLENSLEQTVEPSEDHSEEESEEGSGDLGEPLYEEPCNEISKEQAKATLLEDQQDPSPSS
T2 sequence (Q9UM73 19-1620 limits assumed): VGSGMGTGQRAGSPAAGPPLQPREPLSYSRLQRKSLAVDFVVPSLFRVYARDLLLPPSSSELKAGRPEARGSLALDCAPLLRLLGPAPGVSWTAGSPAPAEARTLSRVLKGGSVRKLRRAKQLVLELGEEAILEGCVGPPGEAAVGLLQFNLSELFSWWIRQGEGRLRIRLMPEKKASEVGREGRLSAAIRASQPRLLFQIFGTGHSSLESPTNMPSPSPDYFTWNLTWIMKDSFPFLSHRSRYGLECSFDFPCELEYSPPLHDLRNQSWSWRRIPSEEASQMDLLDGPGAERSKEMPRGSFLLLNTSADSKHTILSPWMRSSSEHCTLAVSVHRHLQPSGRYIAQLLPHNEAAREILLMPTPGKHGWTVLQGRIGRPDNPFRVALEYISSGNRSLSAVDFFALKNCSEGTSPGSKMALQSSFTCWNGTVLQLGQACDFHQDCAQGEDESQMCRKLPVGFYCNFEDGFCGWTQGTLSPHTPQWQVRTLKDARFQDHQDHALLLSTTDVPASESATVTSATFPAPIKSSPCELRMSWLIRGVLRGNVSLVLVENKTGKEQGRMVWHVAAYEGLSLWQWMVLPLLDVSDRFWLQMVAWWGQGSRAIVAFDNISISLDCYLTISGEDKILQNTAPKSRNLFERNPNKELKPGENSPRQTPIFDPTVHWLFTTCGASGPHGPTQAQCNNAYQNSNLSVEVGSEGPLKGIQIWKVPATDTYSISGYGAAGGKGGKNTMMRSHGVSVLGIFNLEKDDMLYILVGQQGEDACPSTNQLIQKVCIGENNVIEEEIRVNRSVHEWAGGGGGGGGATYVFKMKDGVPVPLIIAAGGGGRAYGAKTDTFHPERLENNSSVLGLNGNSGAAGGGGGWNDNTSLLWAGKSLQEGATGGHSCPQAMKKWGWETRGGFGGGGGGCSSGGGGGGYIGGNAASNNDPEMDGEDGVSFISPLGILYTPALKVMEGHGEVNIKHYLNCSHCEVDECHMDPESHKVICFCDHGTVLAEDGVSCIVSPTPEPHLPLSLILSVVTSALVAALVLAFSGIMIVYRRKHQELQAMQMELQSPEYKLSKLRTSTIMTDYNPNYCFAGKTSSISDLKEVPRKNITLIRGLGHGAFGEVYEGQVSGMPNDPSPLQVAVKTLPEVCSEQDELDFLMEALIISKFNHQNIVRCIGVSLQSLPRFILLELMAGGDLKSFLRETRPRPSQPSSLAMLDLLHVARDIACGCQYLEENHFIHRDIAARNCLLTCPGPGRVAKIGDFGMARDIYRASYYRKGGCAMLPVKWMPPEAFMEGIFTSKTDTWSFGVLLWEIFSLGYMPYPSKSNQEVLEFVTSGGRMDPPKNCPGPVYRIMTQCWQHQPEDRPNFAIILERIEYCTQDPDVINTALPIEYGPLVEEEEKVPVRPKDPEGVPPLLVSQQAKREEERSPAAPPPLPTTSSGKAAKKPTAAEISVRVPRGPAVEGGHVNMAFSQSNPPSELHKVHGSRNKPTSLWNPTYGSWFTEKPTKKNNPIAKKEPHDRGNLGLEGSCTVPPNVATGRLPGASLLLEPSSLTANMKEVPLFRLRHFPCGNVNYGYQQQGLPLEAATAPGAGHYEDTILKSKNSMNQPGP
T1 sequence (P11802 2-303 limits assumed): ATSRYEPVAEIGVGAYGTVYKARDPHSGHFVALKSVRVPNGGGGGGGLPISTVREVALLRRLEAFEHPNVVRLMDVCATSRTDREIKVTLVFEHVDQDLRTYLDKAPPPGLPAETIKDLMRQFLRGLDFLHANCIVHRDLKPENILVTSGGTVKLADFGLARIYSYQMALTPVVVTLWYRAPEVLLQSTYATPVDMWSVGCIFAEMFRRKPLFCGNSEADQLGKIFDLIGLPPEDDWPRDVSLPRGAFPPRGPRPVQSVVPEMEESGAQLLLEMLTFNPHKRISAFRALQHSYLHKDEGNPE
T1 sequence (Q96SW2 whole entry partner): as the sequence (Q96SW2 whole entry partner, the tested form may be a part) above
Protein cereblon/ALK tyrosine kinase receptor (Homo sapiens), sequence (Q96SW2 whole entry partner): as the sequence (Q96SW2 whole entry partner, the tested form may be a part) above
Protein cereblon/ALK tyrosine kinase receptor (Homo sapiens), sequence (Q9UM73 19-1620 limits assumed): as the sequence (Q9UM73 19-1620 limits assumed) above
Protein cereblon/Cyclin-dependent kinase 6 (Homo sapiens), sequence (Q00534 whole entry, looked up): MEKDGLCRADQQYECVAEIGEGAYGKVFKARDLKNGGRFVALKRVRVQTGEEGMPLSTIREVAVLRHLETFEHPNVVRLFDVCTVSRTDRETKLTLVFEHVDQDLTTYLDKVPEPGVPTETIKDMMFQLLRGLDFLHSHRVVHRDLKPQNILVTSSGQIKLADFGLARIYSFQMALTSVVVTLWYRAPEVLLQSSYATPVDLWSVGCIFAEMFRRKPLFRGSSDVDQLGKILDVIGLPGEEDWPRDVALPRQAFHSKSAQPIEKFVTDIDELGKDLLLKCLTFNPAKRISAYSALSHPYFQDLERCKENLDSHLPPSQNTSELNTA
Protein cereblon/Cyclin-dependent kinase 6 (Homo sapiens), sequence (Q96SW2 whole entry, looked up): as the sequence (Q96SW2 whole entry partner, the tested form may be a part) above
ALK tyrosine kinase receptor (Homo sapiens), sequence (Q9UM73 19-1620 limits assumed): as the sequence (Q9UM73 19-1620 limits assumed) above

In the case of `CC(=O)c1c(C)c2cnc(Nc3ccc(N4CCN(CC(=O)NCCSSCCN(CC(=O)NCCNc5cccc6c5C(=O)N(C5CCC(=O)NC5=O)C6=O)C(=O)CCCCCCC(=O)N5CCC(c6cc(OC(C)C)c(Nc7ncc(Cl)c(Nc8ccccc8S(=O)(=O)C(C)C)n7)cc6C)CC5)CC4)cn3)nc2n(C2CCCC2)c1=O` (centres undefined), the Activity [1] is reported as “inactive”, the Activity [2] is reported as “inactive” and the Activity [3] is reported as “inactive”. The Activity (NCI-H3122 [4]) was 11.78%, the Activity [5] was “Active” and the Activity [6] was “Active”. For the same compound, the viability at 0.312 µM (NCI-H3122 [7]) was 91.5%, the Activity [8] was “Non-Toxic” and the IC50 (NCI-H3122 [9]) was 0.11 µM. For the same compound, the Activity (Mus musculus) was “Active”, the Activity (NCI-H3122 [10]) was 18.82% and the inhibition (NCI-H3122 [11]) was “Dose-Dependent Effect”. For the same compound, the Activity (NCI-H3122 [12]) was “Active”, the Activity (NCI-H3122 [13]) was 16.42% and the Activity (NCI-H3122 [14]) was 0.6%. The Activity (NCI-H3122 [15]) was 1.01%, the Activity [16] was “inactive” and the Activity [17] was “Non-Toxic”. The Activity [18] was “Active”, the inhibition [19] was 96.4% and the Activity [20] was “Non-Toxic”. It also gave an inhibition in vivo at 50 mg/kg (NCI-H3122 [21]) of 54.8%, an Activity (NCI-H3122 [22]) of 63.17% and an IC50 (NCI-H1299) of 4.73 µM. For the same compound, the viability at 1.25 µM (NCI-H3122 [23]) was 86.6%, the IC50 [24] was 55.3 µM and the viability at 0.625 µM (NCI-H3122 [25]) was 88.9%. For the same compound, the Activity [26] was “inactive” and the IC50 (NCI-H2228) was 5.56 µM.
